In patent US20060205642A1, “Oral methods of treatment using proANF peptides” (priority 2005, published 2006):
pEC50: −log10 of the molar value.

What was measured:
[1] = system: particulate guanylate cyclase; assay: Cyclic GMP / particulate guanylate cyclase activation in cultured smooth muscle cells and porcine aorta; type: cell-based
[2] = Ischemic nonoliguric acute renal failure (ARF) in rats; type: in vivo, Sprague-Dawley rats
Protocol: Ischemic nonologuric acute renal failure (ARF) was induced in 24 male Sprague-Dawley rats (Zivc-Miller), weighing 200-270 g with 50 min of ischemia. Seven of the ARF rats received proANF 31-67. There were 17 ARF rats in the control group. Each of these rats were handled identically with the control rats as well as the experimental group of rats receiving an osmotic pump placement two days after receiving a unilateral right nephrectomy followed by clamping left renal artery for 50 min. The only difference was that the control group received 0.9% saline only in their osmotic pumps, whereas the experimental group had proANF 31-67 dissolved in 0.9% saline within their osmotic pumps which pump for 72 hours into the peritoneal cavity. In the 17 control ARF rats their preischemic blood urea nitrogen (BUN) and creatinine levels of 16±1 and 0.56±0.05 mg/dl increased to 162±4 and 8.17±0.5 mg/dl, P<0.001, respect 4 of postischemia. ProANF 31-67 (0.3 μg·kg^−1·min^−1 intraperitoneally), decreased the BUN and creatinine levels to 53±17 mg/dl and 0.98±0.12 mg/dl (P<0.001) in seven animals where ARF had been established for two days. […] Acute tubular necrosis was <5% in the proANF 31-67-treated rats compared with 25% to >75% in the placebo-treated ARF animals.

H-EVVPPQVLSEPNEEAGAALSPLPEVPPWTGEVSPAQR-OH [proANF 31-67]
cyclic GMP levels in cultured smooth muscle cells ([1]; cultured smooth muscle cells): increase cyclic GMP levels
concentration of maximal activation of guanylate cyclase activity ([1]; porcine aorta and isolated smooth muscle cells): about 1 μM
pEC50 ([1]; porcine aorta and isolated smooth muscle cells, read-out: half maximal activation (ED5o) of guanylate cyclase): ~8.00
creatinine level ([2]; 0.3 μg·kg^−1·min^−1 intraperitoneally, seven animals, ARF established two days, control ARF rats 8.17±0.5 at day 4): 0.98 ± 0.12 mg/dL
blood urea nitrogen (BUN) level ([2]; 0.3 μg·kg^−1·min^−1 intraperitoneally, seven animals, ARF established two days, control ARF rats 162±4 at day 4): 53 ± 17 mg/dL
acute tubular necrosis ([2]; 25% to >75% in placebo-treated animals): < 5%
mortality at day 6 of ARF ([2]; 88% without proANF 31-67): 14%
left ventricular dilation (transthoracic echocardiography) ([2]; ARF rats): reversed this dilation
water excretion ([2]; doubled with ARF): further augmented
survival (Kaplan-Meir plot) ([2]; from day 4 (P<0.01) and day 5 onward (P<0.001) vs placebo-treated ARF rats): significant advantage with respect to survival
